ChEMBL document CHEMBL6103662, “Thiosulfonate-Based Targeted Covalent Cruzipain Inhibitors with Enhanced Bioactivity Translation for Antichagasic Therapy” (ACS Med Chem Lett, 2025)
pIC50: −log10 of the molar value. The source made the active and inactive calls. The calls are words filed in the database; no cut-off is given here.

Experiments:
[1] = biological target: Cruzipain (Trypanosoma cruzi) (UniProt P25779); assay: Inhibition of recombinant Trypanosoma cruzi Cruzain at 100 uM using Z-FR-AMC as substrate preincubated for 10 mins followed by substrate addition and measured at 5 secs interval for 10 mins by fluorimetry relative to control; conditions: time 20.0 min
[2] = biological target: Cruzipain (Trypanosoma cruzi) (UniProt P25779); assay: Inhibition of recombinant Trypanosoma cruzi Cruzain at 100 uM using Z-FR-AMC as substrate measured at 5 secs interval for 10 mins by fluorimetry relative to control
cathepsin L = cathepsin L (Homo sapiens, UniProt P07711); assay: Inhibition of recombinant human cathepsin L at 100 uM using Z-FR-AMC as substrate preincubated for 10 mins followed by substrate addition and measured for 20 mins by fluorimetry relative to control; conditions: probe Z-FR-AMC, time 30 min
Trypanosoma cruzi [3] = assay: Antitrypanosomal activity against Trypanosoma cruzi Tulahuen trypomastigotes expressing Escherichia coli beta-galactosidase infected in Vero cells at 50 uM measured after 72 hrs by beta-galactosidase based assay relative to control; type: functional
[4] = Cytotoxicity against African green monkey Vero cells assessed as cell viability at 50 uM measured after 96 hrs by Alamar blue assay relative to control; type: toxicity, cell-based; conditions: chlorocebus sabaeus, read-out: Activity
Trypanosoma cruzi [5] = assay: Trypanocidal activity against Trypanosoma cruzi; type: functional, organism-based
Trypanosoma cruzi [6] = assay: Antitrypanosomal activity against Trypanosoma cruzi Tulahuen trypomastigotes expressing Escherichia coli beta-galactosidase infected in Vero cells at 1 uM measured after 72 hrs by beta-galactosidase based assay relative to control; type: functional
Cruzipain = Cruzipain (Trypanosoma cruzi, UniProt P25779); assay: Inhibition of recombinant Trypanosoma cruzi Cruzain using Z-FR-AMC as substrate preincubated for 10 mins followed by substrate addition and measured at 5 secs interval for 10 mins by fluorimetry
Trypanosoma cruzi [7] = assay: Antitrypanosomal activity against Trypanosoma cruzi Tulahuen trypomastigotes expressing Escherichia coli beta-galactosidase infected in Vero cells at 10 uM measured after 72 hrs by beta-galactosidase based assay relative to control; type: functional
[8] = biological target: Cruzipain (Trypanosoma cruzi) (UniProt P25779); assay: (§1) Inhibition of recombinant Trypanosoma cruzi Cruzain at 10 x IC50 using Z-FR-AMC as substrate preincubated for 30 mins followed by 100-fold dilution with assay buffer containing substrate and measured up to 15 mins by fluorescence based jump dilution assay; conditions: time 45.0 min
[9] = biological target: Cruzipain (Trypanosoma cruzi) (UniProt P25779); assay: as §1, with “Reversible inhibition” for “Inhibition”, “Cruzain assessed as recovery of enzyme activity” for “Cruzain”, “after 15” for “up”, “120” for “15”; conditions: time 150.0 min
Trypanosoma cruzi [10] = assay: Antitrypanosomal activity against Trypanosoma cruzi Tulahuen trypomastigotes expressing Escherichia coli beta-galactosidase infected in Vero cells measured after 72 hrs by beta-galactosidase based assay; type: functional, organism-based

Sequence of Cruzipain (Trypanosoma cruzi) (P25779 123-467 limits assumed): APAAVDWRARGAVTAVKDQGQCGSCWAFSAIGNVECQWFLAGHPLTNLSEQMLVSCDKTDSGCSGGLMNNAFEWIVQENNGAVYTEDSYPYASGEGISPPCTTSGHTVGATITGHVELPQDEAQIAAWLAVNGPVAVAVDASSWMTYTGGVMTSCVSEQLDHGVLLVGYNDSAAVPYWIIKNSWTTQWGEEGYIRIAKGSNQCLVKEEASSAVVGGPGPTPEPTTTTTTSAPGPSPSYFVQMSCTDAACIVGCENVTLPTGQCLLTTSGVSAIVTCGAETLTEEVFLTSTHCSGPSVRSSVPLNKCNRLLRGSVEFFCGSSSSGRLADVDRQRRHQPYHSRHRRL
Sequence of Cruzipain (P25779 whole entry): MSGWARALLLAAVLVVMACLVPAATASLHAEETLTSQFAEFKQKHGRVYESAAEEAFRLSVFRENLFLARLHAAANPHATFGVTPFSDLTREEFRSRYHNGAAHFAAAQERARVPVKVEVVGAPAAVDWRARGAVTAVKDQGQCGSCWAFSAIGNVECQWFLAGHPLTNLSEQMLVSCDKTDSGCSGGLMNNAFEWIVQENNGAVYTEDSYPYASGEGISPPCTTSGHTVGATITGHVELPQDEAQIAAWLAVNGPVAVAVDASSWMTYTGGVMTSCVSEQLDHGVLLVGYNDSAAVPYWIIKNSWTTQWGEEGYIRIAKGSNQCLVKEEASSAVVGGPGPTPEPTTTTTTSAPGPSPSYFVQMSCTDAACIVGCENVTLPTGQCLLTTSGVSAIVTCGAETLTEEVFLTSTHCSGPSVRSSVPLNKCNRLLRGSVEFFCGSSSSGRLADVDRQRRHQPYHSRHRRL
Sequence of cathepsin L (P07711 whole entry): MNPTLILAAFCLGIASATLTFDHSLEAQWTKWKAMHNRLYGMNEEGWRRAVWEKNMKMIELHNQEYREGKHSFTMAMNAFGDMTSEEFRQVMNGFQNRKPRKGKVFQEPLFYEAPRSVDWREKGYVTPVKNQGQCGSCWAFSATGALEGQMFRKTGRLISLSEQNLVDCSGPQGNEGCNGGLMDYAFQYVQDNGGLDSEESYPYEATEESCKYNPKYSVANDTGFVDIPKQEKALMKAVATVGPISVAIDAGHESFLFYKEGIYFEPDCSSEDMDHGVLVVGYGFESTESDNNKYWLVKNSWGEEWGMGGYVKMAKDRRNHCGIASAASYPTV

Row | SMILES | inhibition [1] | inhibition [2] | inhibition at 20 min, 100 µM (cathepsin L) | inhibition at 50 µM (Trypanosoma cruzi [3]) | viability at 96 h, 50 µM [4] | pIC50 (Trypanosoma cruzi [5]) | inhibition at 1 µM (Trypanosoma cruzi [6]) | pIC50 (Cruzipain) | inhibition at 10 µM (Trypanosoma cruzi [7]) | inhibition [8] | inhibition [9] | pIC50 (Trypanosoma cruzi [10])
1 | COc1ccc(COC(=O)[C@H](CSS(=O)(=O)c2ccccc2)n2cc(C(NCc3ccc4c(c3)OCO4)C3CCCCC3)nn2)cc1 (stereo partly drawn) | 50% | 7% | 16% | 5% | 97% |  |  |  |  |  |  | 
2 | O=C(Cn1ccnc1[N+](=O)[O-])NCc1ccccc1 [BENZNIDAZOLE] |  |  |  |  |  | 5.84 |  |  |  |  |  | 
3 | CCOC(=O)[C@H](CSS(=O)(=O)c1ccccc1)n1cc(C(NCc2ccc3c(c2)OCO3)C(CC)CC)nn1 (stereo partly drawn) | 56% |  | 2% | 97% | 70% |  | 0% | 4.62 | 91% |  |  | 
4 | CCCCC(NCc1ccc2c(c1)OCO2)c1cn([C@@H](CSS(=O)(=O)c2ccccc2)C(=O)OCC)nn1 (stereo partly drawn) | 92% |  | 84% | 97% | 63% |  | 10.7% | 5.49 | 83% |  |  | 
5 | COC(=O)[C@H](CSS(=O)(=O)c1ccccc1)n1cc(C(NCc2ccc3c(c2)OCO3)C2CCCCC2)nn1 (stereo partly drawn) | 83% | 55% | 55% | 100% | 82% |  | 3% | 4.92 | 90% |  |  | 
6 | CCCCC(c1cn([C@@H](CSS(=O)(=O)c2ccccc2)C(=O)OCC)nn1)N1CCc2ccccc2C1 (stereo partly drawn) | 76% |  | 0% | 91.7% | 82% |  |  | 4.60 | 31% |  |  | 
7 | CCOC(=O)[C@H](CSS(=O)(=O)c1ccccc1)n1cc(C(NCc2ccc3c(c2)OCO3)C2CCCCC2)nn1 (stereo partly drawn) | 92% | 39% | 47% | 100% | 87% |  | 14% | 5.57 | 96% | Active; Showed Near-Zero Slope | Active; Gradual Recovery Of Enzyme Activity Observed | 
8 | CCC(CC)C(NCc1ccc2c(c1)OCO2)c1cn([C@@H](CSS(=O)(=O)c2ccccc2)C(=O)O)nn1 (stereo partly drawn) | 33% |  |  |  |  |  |  |  |  |  |  | 
9 | COC(=O)[C@H](CSS(=O)(=O)c1ccccc1)n1cc(C(NCc2ccc3c(c2)OCO3)C2CCCC2)nn1 (stereo partly drawn) | 90% |  | 23% | 98% | 53% |  | 2% | 5.01 | 88% |  |  | 
10 | O=C[C@H](Cc1ccccc1)n1cc(C(NCc2ccc3c(c2)OCO3)C2CCCCC2)nn1 (stereo partly drawn) | 64% |  |  | 10% |  |  |  | 4.39 |  |  |  | 
11 | CCOC(=O)[C@H](Cc1ccccc1)n1cc(C(NCc2ccc3c(c2)OCO3)C2CCCCC2)nn1 (stereo partly drawn) | 15% |  |  |  |  |  |  |  |  |  |  | 
12 | O=S(=O)(SC[C@@H](Cc1ccccc1)n1cc(C(NCc2ccc3c(c2)OCO3)C2CCCCC2)nn1)c1ccccc1 (stereo partly drawn) | 86% | 39% | 13% | 99.9% | 100% |  |  | 5.66 | 91% |  | Active | 5.72
13 | O=C(O)[C@H](CSS(=O)(=O)c1ccccc1)n1cc(C(NCc2ccc3c(c2)OCO3)C2CCCCC2)nn1 (stereo partly drawn) | 41% |  |  |  |  |  |  |  |  |  |  | 
14 | O=C(O)[C@H](CSS(=O)(=O)c1ccccc1)n1cc(C(C2CCCCC2)N2CCc3ccccc3C2)nn1 (stereo partly drawn) | 28% |  |  |  |  |  |  |  |  |  |  | 
15 | CCOC(=O)[C@H](CSS(=O)(=O)c1ccccc1)n1cc(C(C2CCCCC2)N2CCc3ccccc3C2)nn1 (stereo partly drawn) | 80% |  | 8% | 91% | 87% |  | 0% | 4.86 | 77% |  |  | 
16 | CC(C)[C@H](CSS(=O)(=O)c1ccccc1)n1cc(C(NCc2ccc3c(c2)OCO3)C2CCCCC2)nn1 (stereo partly drawn) | 73% | 20% | 0% | 100% | 75% |  |  | 5.40 | 93% |  | Active | 5.11
